According to US20150182597A1, “COMPOSITIONS COMPRISING HYALURONIC ACID AND DERMATAN SULPHATE FOR THE TREATMENT OF BEING OVERWEIGHT AND OBESITY” (BIOIBERICA, S.A., priority 2012, published 2015):

Assays:
[1] = tested on: mouse embryonic fibroblasts (MEFs); assay: Spontaneous adipogenesis of MEFs in growth medium: lipid accumulation under phase contrast microscopy; assay type: cell-based; settings: day 8 of culture in growth medium, HA 80 μg/mL, DS 20 μg/mL, HA8O+DS20 100 μg/mL
Procedure: MEFs obtained from embryos of 13 days gestational age were cultured in monolayer in growth medium consisting of […] (Invitrogen, Carlsbad, Calif., USA) basal medium supplemented with […] supplement (7.5%), foetal bovine serum (7.5%) and antibiotics, in 12-well culture plates of 1 mL capacity/well, following a previously described protocol (J. B. Hansen et al., Proc. Natl. Acad. Sci. USA 101, 4112-4117 (2004)). Two days after reaching confluence, which is considered day 0 of culture, the cells were exposed to: carrier (water); hyaluronic acid (HA) at a final concentration (f.c.) of 80 μg/mL; dermatan sulphate (DS) at an f.c. of 20 μg/mL; chondroitin sulphate (CS) at an f.c. of 20 μg/mL; or composition of the present invention HA8O+DS20 at an f.c. of 100 μg/mL, containing 80 μg of HA and 20 μg of DS per mL. […] The mRNA levels of the genes related to adipocyte differentiation PPARgamma, C/EBPalpha and fatty acid synthase (FAS) were determined by real-time PCR from the total RNA extracted from the cells with Trizol reagent and reverse-transcribed with reverse transcriptase, and using the mRNA of beta-actin as an internal control. […] The statistical significance of differences with respect to treatment with the carrier was analyzed by means of Student's t-test. […]

resistin = assay: Resistin gene expression in MEF-derived adipocytes; assay type: cell-based, mouse; settings: 8 days of MEF adipocyte differentiation in adipogenic medium; compositions at f.c. 20, 100, 200 μg/mL; HA 80, DS 20 μg/mL
Procedure: MEFs obtained from embryos of 13 days gestational age were cultured in monolayer in growth medium consisting of […] (Invitrogen, Carlsbad, Calif., USA) basal medium supplemented with […] supplement (7.5%), foetal bovine serum (7.5%) and antibiotics, in 12-well culture plates of 1 mL capacity/well, following a previously described protocol (J. B. Hansen et al., Proc. Natl. Acad. Sci. USA 101, 4112-4117 (2004)). […] The mRNA levels of the genes related to adipocyte differentiation PPARgamma, C/EBPalpha and fatty acid synthase (FAS) were determined by real-time PCR from the total RNA extracted from the cells with Trizol reagent and reverse-transcribed with reverse transcriptase, and using the mRNA of beta-actin as an internal control. […] The statistical significance of differences with respect to treatment with the carrier was analyzed by means of Student's t-test. […] The mRNA levels of selected genes were determined by real-time PCR, as described in Example 1. […] Expression levels of the resistin gene were determined by real-time PCR, as described in Example 1.

Substance | clusters of cells spontaneously differentiated into adipocytes filled with fat droplets [1] | expression of resistin (resistin)
dermatan sulphate [DS20] | presence of a number of clusters of cells spontaneously differentiated into adipocytes filled with fat droplets | not reproduced
hyaluronic acid [HA80] | presence of a number of clusters of cells spontaneously differentiated into adipocytes filled with fat droplets | not reproduced
